Values after ≈ are worked out from the molar mass of the structure shown. Like-named read-outs stand apart in the source and are kept apart here.
Experiments:
[1] = system: Poliovirus type 1 (Polio 1, Sabin); experiment: microbe, parasite or virus in culture; format: cell-based
[2] = system: echovirus type 11 (Echo 11, Gregory); experiment: In vitro anti-picornavirus activity (MTT), Echo 11; format: cell-based; details: HeLa-S3 cells, MTT method, 37° C.
[3] = system: HRV3(FEB); experiment: Anti-rhinovirus spectrum (MTT), HRV3; format: cell-based, human rhinovirus; details: Table VII, rhinovirus serotype HRV3
[4] = system: coxsackievirus type B4 (CB4,JVB); experiment: In vitro anti-picornavirus activity (MTT), CB4; format: cell-based; details: HeLa cells, MTT method, 37° C.
[5] = system: HRV33 (1200); experiment: Anti-rhinovirus spectrum (MTT), HRV33; format: cell-based, human rhinovirus; details: Table VII, rhinovirus serotype HRV33
[6] = system: HRV29 (5582); experiment: Anti-rhinovirus spectrum (MTT), HRV29; format: cell-based, human rhinovirus; details: Table VII, rhinovirus serotype HRV29
[7] = system: HRV5; experiment: Anti-rhinovirus spectrum (MTT), HRV5; format: cell-based, human rhinovirus; details: Table VII, rhinovirus serotype HRV5
[8] = system: HRV8(MRH); experiment: Anti-rhinovirus spectrum (MTT), HRV8; format: cell-based, human rhinovirus; details: Table VII, rhinovirus serotype HRV8
[9] = system: HRV36 (342H); experiment: Anti-rhinovirus spectrum (MTT), HRV36; format: cell-based, human rhinovirus; details: Table VII, rhinovirus serotype HRV36
[10] = system: HRV14 (1059); experiment: Anti-rhinovirus activity (MTT), HRV14; format: cell-based, human rhinovirus; details: Table VII, rhinovirus serotype HRV14
[11] = system: clinical isolate (89229T); experiment: microbe, parasite or virus in culture; format: cell-based, human rhinovirus; details: Table VII, clinical isolate (89229T)
[12] = system: HRV39 (209); experiment: Anti-rhinovirus spectrum (MTT), HRV39; format: cell-based, human rhinovirus; details: Table VII, rhinovirus serotype HRV39
[13] = system: HRV10 (204-CV14); experiment: Anti-rhinovirus spectrum (MTT), HRV10; format: cell-based, human rhinovirus; details: Table VII, rhinovirus serotype HRV10
[14] = Cytotoxicity (MTT, without virus), HeLa; details: human, HeLa cells (uninfected)
[15] = system: HRV50(A2#58); experiment: Anti-rhinovirus spectrum (MTT), HRV50; format: cell-based, human rhinovirus
[16] = system: HRV 2 (HGP); experiment: Anti-rhinovirus activity (MTT), HRV2; format: cell-based, human rhinovirus; parameters: Anti-Rhinovirus activity, HRV2: unit not given here
[17] = system: HRV 89 (41617-Gallo); experiment: Anti-rhinovirus activity (MTT), HRV89; format: cell-based, human rhinovirus; parameters: Anti-Rhinovirus activity, HRV89: unit not given here
[18] = system: HRV32 (363); experiment: Anti-rhinovirus spectrum (MTT), HRV32; format: cell-based, human rhinovirus; details: Table VII, rhinovirus serotype HRV32
[19] = Cytotoxicity (MTT, without virus), HeLa-S3; details: human, HeLa-S3 cells (uninfected)
[20] = system: HRV21 (47); experiment: Anti-rhinovirus spectrum (MTT), HRV21; format: cell-based, human rhinovirus; details: Table VII, rhinovirus serotype HRV21
[21] = Cytotoxicity (MTT, without virus), HeLa(Ohio); details: human, HeLa (Ohio strain) cells (uninfected)
[22] = system: HRV13 (353); experiment: Anti-rhinovirus spectrum (MTT), HRV13; format: cell-based, human rhinovirus; details: Table VII, rhinovirus serotype HRV13
[23] = system: HRV61 (6669-CV39); experiment: Anti-rhinovirus spectrum (MTT), HRV61; format: cell-based, human rhinovirus; details: Table VII, rhinovirus serotype HRV61
[24] = system: HRV16 (11757); experiment: Anti-rhinovirus spectrum (MTT), HRV16; format: cell-based, human rhinovirus; details: Table VII, rhinovirus serotype HRV16
[25] = system: coxsackievirus type A7 (CA7); experiment: In vitro anti-picornavirus activity (MTT), CA7; format: cell-based; details: HeLa-S3 cells, MTT method, 37° C.
[26] = system: HRV1A (E28); experiment: Anti-rhinovirus activity (MTT), HRV1A; format: cell-based, human rhinovirus
[27] = system: human rhinovirus type 1B (HRV 1B, B632); experiment: Anti-rhinovirus activity (MTT), HRV1B; format: cell-based; parameters: Anti-Rhinovirus activity, HRV1B: unit not given here
[28] = system: HRV31 (41F); experiment: Anti-rhinovirus spectrum (MTT), HRV31; format: cell-based, human rhinovirus; details: Table VII, rhinovirus serotype HRV31
[29] = system: HRV41 (56110); experiment: Anti-rhinovirus spectrum (MTT), HRV41; format: cell-based, human rhinovirus; details: Table VII, rhinovirus serotype HRV41
[30] = system: simian rotavirus (SRoV, SA11); experiment: In vitro anti-rotavirus activity (plaque reduction), SRoV; format: cell-based; details: MA104 cells, four days after infection
Protocol: (§1) Human rotavirus (HROV, Odelia) and simian rotavirus (SRoV, SA11) were used in this experiment. Confluent monolayers of MA104 cells in 6-well multiplate were washed with Eagle MEM containing 0.5 μg/ml of trypsin and were infected with tripsinized-rotavirus (treated with 10 μg/ml of tripsin at 37° C. for 1.5 hr) at 50 PFU per well. After 1 hr of adsorption, the virus inoculum was removed, and the monolayers were washed with Eagle MEM containing 0.5 μg/ml of trypsin and overlaid with Eagle MEM containing 1 μg/ml of trypsin, 0.6% purified agar and the test compounds at various concentrations. The cultures were incubated at 37° C. for 3 days and same overlay medium was added. Four days after infection, the cell sheets were washed with PBS and stained with 1.3% crystal violet in 95% ethanol. The antiviral efficacy of the compounds was expressed as the IC50, that is the concentration of the compounds required to reduce the number of plaques to 50% in the control (virus-infected, but […]).

[31] = system: HeLa cells; experiment: Cytotoxicity (MTT, without virus), HeLa; details: HeLa, no virus, incubated for 4 days
[32] = system: Human rotavirus (HROV, Odelia); experiment: In vitro anti-rotavirus activity (plaque reduction), HRoV; format: cell-based; details: MA104 cells, four days after infection
Protocol: as §1

[33] = system: HeLa-S3 cells; experiment: Cytotoxicity (MTT, without virus), HeLa-S3; details: HeLa-S3, no virus, incubated for 4 days
[34] = system: HeLa (Ohio strain)cells; experiment: Cytotoxicity (MTT, without virus), HeLa(Ohio); details: HeLa(Ohio), no virus, incubated for 4 days
[35] = HeLa (Ohio strain) cells, MTT method, 33° C.

In the case of `Cc1c(-c2ccccc2)n(-c2ccccc2)c2ccc(C(C)C)cc2c1=O` [Compound A320, 1,2-Diphenyl-3-methyl-6-isopropyl-1,4-dihydro-4-oxoquinoline], the IC50 ([1]; Enterovirus C, HeLa S3, read-out: IC50 Polio 1) was greater than 5 µg/mL, the IC50 ([2]; Enterovirus B) was 0.15 µg/mL (≈ 0.424 µM) and the IC50 ([3]; Enterovirus) was greater than 5 µg/mL. For the same compound, the IC50 ([4]; Coxsackievirus) was greater than 5 µg/mL, the IC50 ([5]; Enterovirus) was 0.23 µg/mL (≈ 0.651 µM) and the IC50 ([6]; Enterovirus) was 0.079 µg/mL (≈ 0.224 µM). For the same compound, the IC50 ([7]; Enterovirus) was greater than 5 µg/mL, the IC50 ([8]; Enterovirus) was greater than 5 µg/mL and the IC50 ([9]; Enterovirus) was 0.082 µg/mL (≈ 0.232 µM). The IC50 ([10]; Enterovirus, read-out: Anti-rhinovirus activity HRV14) was greater than 5 µg/mL, the IC50 ([11]; Human rhinovirus sp., read-out: Anti-rhinovirus activity Clinically isolated strain) was 0.017 µg/mL (≈ 0.0481 µM) and the IC50 ([12]; Enterovirus) was less than 0.017 µg/mL. The IC50 ([13]; Enterovirus) was 0.021 µg/mL (≈ 0.0594 µM), the CC50 at 4 days [14] was greater than 5 µg/mL and the melting point was 225 °C. For the same compound, the IC50 ([15]; Enterovirus, HRV50, read-out: Anti-rhinovirus activity HRV50) was 0.02 µg/mL (≈ 0.0566 µM), the IC50 ([16]; Enterovirus, Table VII, rhinovirus serotype HRV2, read-out: Anti-rhinovirus activity HRV2) was 0.051 µg/mL (≈ 0.144 µM) and the IC50 ([16]; Human rhinovirus sp., HRV2, HeLa (Ohio strain) cells, MTT method, 33° C., read-out: IC50 HRV2) was 0.051 µg/mL (≈ 0.144 µM). For the same compound, the IC50 ([17]; Enterovirus, Table VII, rhinovirus serotype HRV89, read-out: Anti-rhinovirus activity HRV89) was 0.051 µg/mL (≈ 0.144 µM), the IC50 ([17]; Human rhinovirus sp., HRV89, HeLa (Ohio strain) cells, MTT method, 33° C., read-out: IC50 HRV89) was 0.051 µg/mL (≈ 0.144 µM) and the IC50 ([18]; Enterovirus) was 0.051 µg/mL (≈ 0.144 µM). For the same compound, the CC50 at 4 days [19] was greater than 5 µg/mL, the IC50 ([20]; Enterovirus) was 0.024 µg/mL (≈ 0.0679 µM) and the CC50 at 4 days [21] was greater than 5 µg/mL. It also gave an IC50 ([22]; Enterovirus) of 0.23 µg/mL (≈ 0.651 µM), an IC50 ([23]; Enterovirus) of 0.21 µg/mL (≈ 0.594 µM) and an IC50 ([24]; Enterovirus) of 0.023 µg/mL (≈ 0.0651 µM). The IC50 ([25]; Coxsackievirus) was greater than 5 µg/mL, the IC50 ([26]; Enterovirus, HRV1A, read-out: Anti-rhinovirus activity HRV1A) was greater than 5 µg/mL and the IC50 ([27]; Human rhinovirus sp., HRV1B, HeLa (Ohio strain) cells, MTT method, 33° C., read-out: IC50 HRV1B) was 0.12 µg/mL (≈ 0.339 µM). For the same compound, the IC50 ([27]; Table VII, rhinovirus serotype HRV1B, read-out: Anti-rhinovirus activity HRV1B) was 0.12 µg/mL (≈ 0.339 µM), the IC50 ([28]; Enterovirus) was 0.046 µg/mL (≈ 0.13 µM) and the IC50 ([29]; Enterovirus) was 0.066 µg/mL (≈ 0.187 µM).

With `Cc1c(-c2ccccc2)n(-c2ccc(F)cc2)c2ccc(C(C)C)cc2c1=O` [Compound A323] the “IC50 Polio 1” value [1] was greater than 2 µg/mL, the “IC50 Echo 11” value [2] was greater than 2 µg/mL and the “Anti-Rhinovirus activity, HRV3” value [3] was greater than 2.0. For the same compound, the “IC50 CB4” value [4] was greater than 2 µg/mL, the “Anti-Rhinovirus activity, HRV33” value [5] was 0.30 and the “Anti-Rhinovirus activity, HRV29” value [6] was 0.11. For the same compound, the “Anti-Rhinovirus activity, HRV5” value [7] was greater than 2.0, the “Anti-Rhinovirus activity, HRV8” value [8] was greater than 2.0 and the “Anti-Rhinovirus activity, HRV36” value [9] was 0.13. For the same compound, the “Anti-Rhinovirus activity, HRV14” value [10] was greater than 2.0, the “Anti-rhinovirus activity Clinically isolated strain” value [11] was 0.030 and the “Anti-Rhinovirus activity, HRV39” value [12] was 0.018. The “Anti-Rhinovirus activity, HRV10” value [13] was 0.032, the “Anti-rotavirus activity IC50 SRoV(SA11)” value [30] was 0.90 µg/mL and the “Cytotoxicity CC50 HeLa” value [31] was greater than 2 µg/mL. For the same compound, the “Anti-rotavirus activity IC50 HRoV(Odelia)” value [32] was 1.30 µg/mL, the “Anti-Rhinovirus activity, HRV50” value ([15]; Table VII, rhinovirus serotype HRV50) was 0.038 and the “IC50 HRV2” value [16, 35] was 0.038 µg/mL (≈ 0.102 µM). For the same compound, the “Anti-Rhinovirus activity, HRV2” value ([16]; Table VII, rhinovirus serotype HRV2) was 0.038, the “IC50 HRV89” value [17, 35] was 0.011 µg/mL (≈ 0.0296 µM) and the “Anti-Rhinovirus activity, HRV89” value ([17]; Table VII, rhinovirus serotype HRV89) was 0.011. The “Anti-Rhinovirus activity, HRV32” value [18] was 0.077, the “Cytotoxicity CC50 HeLa-S3” value [33] was greater than 2 µg/mL and the “Anti-Rhinovirus activity, HRV21” value [20] was 0.067. The “Cytotoxicity CC50 HeLa(Ohio)” value [34] was greater than 2 µg/mL, the “Anti-Rhinovirus activity, HRV13” value [22] was 0.12 and the “Anti-Rhinovirus activity, HRV61” value [23] was 0.30. For the same compound, the “Anti-Rhinovirus activity, HRV16” value [24] was 0.033, the “IC50 CA7” value [25] was greater than 2 µg/mL and the “Anti-Rhinovirus activity, HRV1A” value ([26]; Table VII, rhinovirus serotype HRV1A, same method as above) was greater than 2.0. For the same compound, the “IC50 HRV1B” value [27, 35] was 0.27 µg/mL (≈ 0.727 µM), the “Anti-Rhinovirus activity, HRV1B” value ([27]; Table VII, rhinovirus serotype HRV1B) was 0.27 and the “Anti-Rhinovirus activity, HRV31” value [28] was 0.088. The “Anti-Rhinovirus activity, HRV41” value [29] was 0.058.

From patent publication US7109338B2, “1,2-disubstituted 1,4-dihydro-4-oxoquinoline compounds” (priority 1999, dated 2006)
